Literature values, collected in patent publication US20080194655A1, “ZERO ORDER CONTROLLED RELEASE COMPOSITIONS OF TIZANIDINE” (priority 2007, published 2008).

Tested on: cognitive function (attention)
Settings: doses of 0.5-0.7 g/kg alcohol

For `CCO` [alcohol], which “peak impairment (decrement) in Power of Attention compared to baseline” value is on record?
Its value is “about 150 msec”.
